From US20240132431A1, “METHOD FOR ALKYLATING ACIDIC FUNCTIONAL GROUP” (Chugai Seiyaku Kabushiki Kaisha, priority 2021, published 2024)

Target: T1, Bcl-2 protein (Recombinant Human Bcl-2 Protein) (Homo sapiens, UniProt P10415)
T1 construct: purchased Novus NBP2-34889
Assay: Binding evaluation of mixture library compounds to Bcl-2 using AS-MS (affinity selection mass spectrometry)
Details: for ASMS ratio (%) n = 1: replicate n = 1; for ASMS ratio (%) n = 1 / ASMS ratio (%) n = 2: ASMS Ratio(%)=(A−C)/B×100; for ASMS ratio (%) n = 2: replicate n = 2
Outline: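 Readout is ASMS Ratio (%), (A−C)/B×100, from reversed-phase LC/MS of SEC-passed extracts, with protein-free unfiltered standard (B) and protein-free SEC blank (C). Recombinant human Bcl-2 at 20 μM final met ~1200 pooled compounds at […] each for 1 h, 23° C., dark, in Tris-HCl pH 7.4 buffer.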

[1] = AS-MS on the mixture of 1200 library compounds
[2] = AS-MS, mixture of 1200 compounds, Bcl-2

T1 sequence (P10415 whole entry): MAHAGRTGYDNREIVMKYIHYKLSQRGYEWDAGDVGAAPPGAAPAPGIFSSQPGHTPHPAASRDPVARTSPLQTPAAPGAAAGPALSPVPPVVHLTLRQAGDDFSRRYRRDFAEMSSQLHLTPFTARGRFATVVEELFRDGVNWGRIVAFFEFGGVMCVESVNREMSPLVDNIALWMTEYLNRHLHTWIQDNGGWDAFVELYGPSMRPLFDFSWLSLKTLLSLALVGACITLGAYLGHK

| Compound | ASMS ratio (%) (n = 1) | ASMS ratio (%) (n = 2) | ASMS ratio (%) n = 1 [2] [%] | ASMS ratio (%) n = 2 [2] [%] | further results |
| --- | --- | --- | --- | --- | --- |
| CCOc1cncc(-c2ccc(C(C)N3CCN(c4ccc(C(=O)N(CC)CC)cc4)CC3)c(F)c2)c1 (centres unmarked) [B4J100-01, 4-[4-[1-[4-(5-Ethoxypyridin-3-yl)-2-fluorophenyl]ethyl]piperazin-1-yl]-N,N-diethylbenzamide] | – | – | – | – | ASMS ratio (%) n = 1 (AS-MS, mixture library, Bcl-2): 0.0%; ASMS ratio (%) n = 2 (AS-MS, mixture library, Bcl-2): 0.0% |
| CCOc1cccc(-c2ccc(CN3CCN(c4ccc(C(=O)N(CC)CC)nn4)CC3)c3ccccc23)c1 [B4J091-01, 6-[4-[[4-(3-Ethoxyphenyl)naphthalen-1-yl]methyl]piperazin-1-yl]-N,N-diethylpyridazine-3-carboxamide] | – | – | – | – | ASMS ratio (%) n = 1 (AS-MS, mixture library, Bcl-2): 3.7%; ASMS ratio (%) n = 2 (AS-MS, mixture library, Bcl-2): 1.5% |
| CCOc1cncc(-c2ccccc2CCC(=O)N2CCN(c3ccc(C(=O)NS(=O)(=O)c4ccc(NCCSc5ccccc5)c(C(F)(F)F)c4)nn3)CC2)c1 [B2R012-01, 6-[4-[3-[2-(5-Ethoxypyridin-3-yl)phenyl]propanoyl]piperazin-1-yl]-N-[4-(2-phenylsulfanylethylamino)-3-(trifluoromethyl)phenyl]sulfonylpyridazine-3-carboxamide] | 15.8 | 13.5 | – | – | – |
| CCOc1cccc(-c2ccc(C(=O)N3CCN(c4ccc(C(=O)N(CC)CC)cc4)CC3)cc2F)c1 [B4J027-01, 4-[4-[4-(3-Ethoxyphenyl)-3-fluorobenzoyl]piperazin-1-yl]-N,N-diethylbenzamide] | – | – | – | – | ASMS ratio (%) n = 1 [1]: −0.5%; ASMS ratio (%) n = 2 [1]: 0.2% |
| CCOc1cncc(-c2ccccc2CCC(=O)N2CCN(c3ccc(C(=O)NS(=O)(=O)C(C)(C)C)cc3)CC2)c1 [B2L034-01, N-tert-Butylsulfonyl-4-[4-[3-[2-(5-ethoxypyridin-3-yl)phenyl]propanoyl]piperazin-1-yl]benzamide] | 1.6 | 3.5 | – | – | – |
| CCOc1cncc(-c2cc(CN3CCN(c4ccc(C(=O)NS(=O)(=O)CCC(F)(F)F)nn4)CC3)cc(OCC)c2)c1 [B2N082-01] | 2.5 | 2.8 | – | – | – |
| CCOc1cccc(-c2ccc(C(=O)N3CCN(c4ccc(C(=O)NS(=O)(=O)c5ccc(NCCSc6ccccc6)c([N+](=O)[O-])c5)nn4)CC3)c3ccccc23)c1 [B2Q013-01, 6-[4-[4-(3-Ethoxyphenyl)naphthalene-1-carbonyl]piperazin-1-yl]-N-[3-nitro-4-(2-phenylsulfanylethylamino)phenyl]sulfonylpyridazine-3-carboxamide] | – | – | – | – | ASMS ratio (%) n = 1 (AS-MS, mixture library, Bcl-2): 0.0%; ASMS ratio (%) n = 2 (AS-MS, mixture library, Bcl-2): 0.0% |
| CCOc1cncc(-c2cc(CN3CCN(c4ccc(C(=O)NS(=O)(=O)CCC(F)(F)F)cc4)CC3)cc(OC(F)(F)F)c2)c1 [B2N064-01, 4-[4-[[3-(5-Ethoxypyridin-3-yl)-5-(trifluoromethoxy)phenyl]methyl]piperazin-1-yl]-N-(3,3,3-trifluoropropylsulfonyl)benzamide] | 0.0 | 0.0 | – | – | – |
| 6-[4-[[3-(5-Ethoxypyridin-3-yl)-5-(trifluoromethyl)phenyl]methyl]piperazin-1-yl]-N-propylpyridazine-3-carboxamide [B1M029-01] | – | – | 3.0 | −0.6 | – |
| CCOc1cccc(C#Cc2cncc(C(=O)N3CCN(c4ccc(C(=O)NCC56CC7CC(CC(C7)C5)C6)nn4)CC3)c2)c1 [B1A009-01, N-(1-Adamantylmethyl)-6-[4-[5-[2-(3-ethoxyphenyl)ethynyl]pyridine-3-carbonyl]piperazin-1-yl]pyridazine-3-carboxamide] | – | – | 3.0 | 0.0 | – |
| CCOc1cncc(C#Cc2cncc(C(=O)N3CCN(c4ccc(C(=O)NCC56CC7CC(CC(C7)C5)C6)cc4)CC3)c2)c1 [B1A032-01, N-(1-Adamantylmethyl)-4-[4-[5-[2-(5-ethoxypyridin-3-yl)ethynyl]pyridine-3-carbonyl]piperazin-1-yl]benzamide] | – | – | 0.0 | −9.1 | – |
| CCOc1cncc(-c2ccc(CN3CCN(c4ccc(C(=O)NCC(F)(F)F)cc4)CC3)c(OC)c2)c1 [B1K054-01, 4-[4-[[4-(5-Ethoxypyridin-3-yl)-2-methoxyphenyl]methyl]piperazin-1-yl]-N-(2,2,2-trifluoroethyl)benzamide] | – | – | 0.0 | 0.0 | – |
| CCOc1cncc(-c2ccc(C(=O)N3CCN(c4ccc(C(=O)N(CC)CC)cc4)CC3)c3ccccc23)c1 [B4J036-01, 4-[4-[4-(5-Ethoxypyridin-3-yl)naphthalene-1-carbonyl]piperazin-1-yl]-N,N-diethylbenzamide] | – | – | – | – | ASMS ratio (%) n = 1 [1]: −0.3%; ASMS ratio (%) n = 2 [1]: −1.6% |
| CCOc1cccc(C#Cc2cncc(C(=O)N3CCN(c4ccc(C(=O)NS(=O)(=O)CC56CC7CC(CC(C7)C5)C6)nn4)CC3)c2)c1 [B2A009-01, N-(1-Adamantylmethylsulfonyl)-6-[4-[5-[2-(3-ethoxyphenyl)ethynyl]pyridine-3-carbonyl]piperazin-1-yl]pyridazine-3-carboxamide] | – | – | – | – | ASMS ratio (%) n = 1 (AS-MS, mixture library, Bcl-2): 3.1%; ASMS ratio (%) n = 2 (AS-MS, mixture library, Bcl-2): 7.2% |
| CCOc1cccc(-c2cc(OC)c(CN3CCN(c4ccc(C(=O)NS(=O)(=O)c5ccc(NCCSc6ccccc6)c(C(F)(F)F)c5)cc4)CC3)c(OC)c2)c1 [B2R059-01, 4-[4-[[4-(3-Ethoxyphenyl)-2,6-dimethoxyphenyl]methyl]piperazin-1-yl]-N-[4-(2-phenylsulfanylethylamino)-3-(trifluoromethyl)phenyl]sulfonylbenzamide] | 0.0 | 0.0 | – | – | – |
| CCOc1cccc(-c2csc(CN3CCN(c4ccc(C(=O)NS(=O)(=O)CC56CC7CC(CC(C7)C5)C6)cc4)CC3)c2)c1 [B2A067-01, N-(1-Adamantylmethylsulfonyl)-4-[4-[[4-(3-ethoxyphenyl)thiophen-2-yl]methyl]piperazin-1-yl]benzamide] | – | – | – | – | ASMS ratio (%) n = 1 (AS-MS, mixture library, Bcl-2): 0.0%; ASMS ratio (%) n = 2 (AS-MS, mixture library, Bcl-2): 0.0% |
| CCOc1cccc(-c2cc(OC)c(CN3CCN(c4ccc(C(=O)NCC56CC7CC(CC(C7)C5)C6)cc4)CC3)c(OC)c2)c1 [B1A059-01, N-(1-Adamantylmethyl)-4-[4-[[4-(3-ethoxyphenyl)-2,6-dimethoxyphenyl]methyl]piperazin-1-yl]benzamide] | – | – | 7.7 | −5.5 | – |
| CCOc1cccc(C#Cc2ccccc2CN2CCN(c3ccc(C(=O)NS(=O)(=O)C(C)(C)C)nn3)CC2)c1 [B2L095-01, N-tert-Butylsulfonyl-6-[4-[[2-[2-(3-ethoxyphenyl)ethynyl]phenyl]methyl]piperazin-1-yl]pyridazine-3-carboxamide] | 0.0 | 0.0 | – | – | – |
| CCOc1cccc(-c2csc(CN3CCN(c4ccc(C(=O)NCC56CC7CC(CC(C7)C5)C6)cc4)CC3)c2)c1 [B1A067-01, N-(1-Adamantylmethyl)-4-[4-[[4-(3-ethoxyphenyl)thiophen-2-yl]methyl]piperazin-1-yl]benzamide] | – | – | 3.6 | −7.8 | – |
